# Experimental data published in ChEMBL document CHEMBL3797052 (Eur J Med Chem, 2016).
# Key:
# MDA-MB-435 [1] = assay: Antiproliferative activity against human MDA-MB-435 cells assessed as growth inhibition after 48 hrs by sulforhodamine B assay; assay type: functional; settings: MDA-MB-435, 48 h; for CC50: read-out: LC50 (the source's name)
# [2] = Antiproliferative activity against human SNB19 cells assessed as growth inhibition after 48 hrs by sulforhodamine B assay; assay type: functional; settings: SNB-19, 48 h
# CCRF-CEM = assay: Antiproliferative activity against human CCRF-CEM cells assessed as growth inhibition after 48 hrs by sulforhodamine B assay; assay type: functional; settings: for CC50: read-out: LC50 (the source's name)
# NCI-H322M = assay: Antiproliferative activity against human NCI-H322M cells assessed as growth inhibition after 48 hrs by sulforhodamine B assay; assay type: functional
# [3] = Antiproliferative activity against human HL-60(TB) cells assessed as growth inhibition after 48 hrs by sulforhodamine B assay; assay type: functional; settings: HL-60, 48 h; for CC50: read-out: LC50 (the source's name)
# [4] = Antiproliferative activity against human Hs 578T cells assessed as growth inhibition after 48 hrs by sulforhodamine B assay; assay type: functional; settings: for CC50: read-out: LC50 (the source's name)
# [5] = Antiproliferative activity against human HCT116 cells assessed as cell growth at 10^-7 M after 48 hrs by sulforhodamine B assay; assay type: functional; settings: HCT-116, 48 h, read-out: Activity
# [6] = Antiproliferative activity against human RPMI8226 cells assessed as cell growth at 10^-8 M after 48 hrs by sulforhodamine B assay; assay type: functional; settings: RPMI-8226, 48 h, read-out: Activity
# [7] = Antiproliferative activity against human HCC2998 cells assessed as cell growth at 10^-7 M after 48 hrs by sulforhodamine B assay; assay type: functional; settings: HCC 2998, 48 h, read-out: Activity
# [8] = Antiproliferative activity against human UACC62 cells assessed as cell growth at 10^-7 M after 48 hrs by sulforhodamine B assay; assay type: functional; settings: UACC-62, 48 h, read-out: Activity
# EKVX = assay: Antiproliferative activity against human EKVX cells assessed as cell growth at 10^-4 M after 48 hrs by sulforhodamine B assay; assay type: functional; settings: read-out: Activity
# [9] = target: RAF proto-oncogene serine/threonine-protein kinase (Homo sapiens, UniProt P04049); assay: Inhibition of human C-RAF measured after 40 mins by scintillation counting
# [10] = Antiproliferative activity against human HCT116 cells assessed as cell growth at 10^-6 M after 48 hrs by sulforhodamine B assay; assay type: functional; settings: HCT-116, 48 h, read-out: Activity
# [11] = Antiproliferative activity against human OVCAR5 cells assessed as cell growth at 10^-6 M after 48 hrs by sulforhodamine B assay; assay type: functional; settings: OVCAR-5, 48 h, read-out: Activity
# [12] = Antiproliferative activity against human HCT15 cells assessed as cell growth at 10^-4 M after 48 hrs by sulforhodamine B assay; assay type: functional; settings: HCT-15, 48 h, read-out: Activity
# NCI-H23 = assay: Antiproliferative activity against human NCI-H23 cells assessed as cell growth at 10^-7 M after 48 hrs by sulforhodamine B assay; assay type: functional; settings: NCI-H23, 48 h, read-out: Activity
# [13] = Antiproliferative activity against human UO31 cells assessed as cell growth at 10^-7 M after 48 hrs by sulforhodamine B assay; assay type: functional; settings: UO-31, 48 h, read-out: Activity
# [14] = Antiproliferative activity against human OVCAR8 cells assessed as cell growth at 10^-6 M after 48 hrs by sulforhodamine B assay; assay type: functional; settings: OVCAR-8, 48 h, read-out: Activity
# [15] = Antiproliferative activity against human NCI-ADR-RES cells assessed as cell growth at 10^-6 M after 48 hrs by sulforhodamine B assay; assay type: functional; settings: read-out: Activity
# MDA-MB-435 [16] = assay: Antiproliferative activity against human MDA-MB-435 cells assessed as cell growth at 10^-6 M after 48 hrs by sulforhodamine B assay; assay type: functional; settings: MDA-MB-435, 48 h, read-out: Activity
# [17] = Antiproliferative activity against human SNB19 cells assessed as cell growth at 10^-4 M after 48 hrs by sulforhodamine B assay; assay type: functional; settings: SNB-19, 48 h, read-out: Activity
# NCI-H522 [18] = assay: Antiproliferative activity against human NCI-H522 cells assessed as cell growth at 10^-7 M after 48 hrs by sulforhodamine B assay; assay type: functional; settings: NCI-H522, 48 h, read-out: Activity
# [19] = Antiproliferative activity against human COLO205 cells assessed as cell growth at 10^-4 M after 48 hrs by sulforhodamine B assay; assay type: functional; settings: COLO 205, 48 h, read-out: Activity
# NCI-H522 [20] = assay: Antiproliferative activity against human NCI-H522 cells assessed as cell growth at 10^-8 M after 48 hrs by sulforhodamine B assay; assay type: functional; settings: NCI-H522, 48 h, read-out: Activity
# A498 = assay: Antiproliferative activity against human A498 cells assessed as cell growth at 10^-8 M after 48 hrs by sulforhodamine B assay; assay type: functional; settings: A498, 48 h, read-out: Activity
# [21] = Antiproliferative activity against human HCT116 cells assessed as cell growth at 10^-8 M after 48 hrs by sulforhodamine B assay; assay type: functional; settings: HCT-116, 48 h, read-out: Activity
# [22] = Antiproliferative activity against human OVCAR8 cells assessed as cell growth at 10^-8 M after 48 hrs by sulforhodamine B assay; assay type: functional; settings: OVCAR-8, 48 h, read-out: Activity
# [23] = Antiproliferative activity against human HOP62 cells assessed as cell growth at 10^-8 M after 48 hrs by sulforhodamine B assay; assay type: functional; settings: HOP-62, 48 h, read-out: Activity
# NCI-H460 = assay: Antiproliferative activity against human NCI-H460 cells assessed as cell growth at 10^-7 M after 48 hrs by sulforhodamine B assay; assay type: functional; settings: NCI-H460, 48 h, read-out: Activity
# SN12C = assay: Antiproliferative activity against human SN12C cells assessed as cell growth at 10^-8 M after 48 hrs by sulforhodamine B assay; assay type: functional; settings: read-out: Activity
# NCI-H226 = assay: Antiproliferative activity against human NCI-H226 cells assessed as cell growth at 10^-7 M after 48 hrs by sulforhodamine B assay; assay type: functional; settings: NCI-H226, 48 h, read-out: Activity
# [24] = Antiproliferative activity against human UACC257 cells assessed as cell growth at 10^-6 M after 48 hrs by sulforhodamine B assay; assay type: functional; settings: UACC-257, 48 h, read-out: Activity
# MDA-MB-435 [25] = assay: Antiproliferative activity against human MDA-MB-435 cells assessed as cell growth at 10^-8 M after 48 hrs by sulforhodamine B assay; assay type: functional; settings: MDA-MB-435, 48 h, read-out: Activity
# MCF7 = assay: Antiproliferative activity against human MCF7 cells assessed as cell growth at 10^-8 M after 48 hrs by sulforhodamine B assay; assay type: functional; settings: MCF7, 48 h, read-out: Activity
# M14 = assay: Antiproliferative activity against human M14 cells assessed as cell growth at 10^-6 M after 48 hrs by sulforhodamine B assay; assay type: functional; settings: M14, 48 h, read-out: Activity
# [26] = Antiproliferative activity against human DU145 cells assessed as cell growth at 10^-4 M after 48 hrs by sulforhodamine B assay; assay type: functional; settings: DU-145, 48 h, read-out: Activity
# [27] = Antiproliferative activity against human MOLT4 cells assessed as cell growth at 10^-4 M after 48 hrs by sulforhodamine B assay; assay type: functional; settings: MOLT-4, 48 h, read-out: Activity
# Chain of RAF proto-oncogene serine/threonine-protein kinase (P04049 whole entry): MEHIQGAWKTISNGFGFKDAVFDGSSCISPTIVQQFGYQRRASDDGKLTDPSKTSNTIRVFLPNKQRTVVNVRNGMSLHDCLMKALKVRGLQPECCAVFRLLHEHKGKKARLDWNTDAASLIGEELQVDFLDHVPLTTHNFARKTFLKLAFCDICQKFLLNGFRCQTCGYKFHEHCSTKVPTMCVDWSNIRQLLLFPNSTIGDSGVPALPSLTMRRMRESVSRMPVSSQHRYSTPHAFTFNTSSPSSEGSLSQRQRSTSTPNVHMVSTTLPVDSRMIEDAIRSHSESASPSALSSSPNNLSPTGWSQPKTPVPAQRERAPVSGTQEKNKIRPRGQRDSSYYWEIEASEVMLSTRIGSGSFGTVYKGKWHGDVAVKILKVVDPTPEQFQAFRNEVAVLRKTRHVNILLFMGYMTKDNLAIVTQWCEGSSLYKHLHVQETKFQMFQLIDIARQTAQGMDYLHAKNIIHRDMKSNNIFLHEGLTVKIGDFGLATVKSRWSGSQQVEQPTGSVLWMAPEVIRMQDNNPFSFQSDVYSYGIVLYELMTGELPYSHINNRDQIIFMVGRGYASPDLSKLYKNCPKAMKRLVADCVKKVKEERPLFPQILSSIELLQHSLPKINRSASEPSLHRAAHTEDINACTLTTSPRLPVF
smiles,measurement,setting,value
CNC(=O)c1cc(Oc2ccc(NC(=O)Nc3ccc(Cl)c(C(F)(F)F)c3)cc2)ccn1 [SORAFENIB],TGI,MDA-MB-435 [1],3.98 µM
same,CC50,MDA-MB-435 [1],10 µM
same,GI50,[2],3.16 µM
same,TGI,[2],15.8 µM
same,GI50,CCRF-CEM,2 µM
same,TGI,CCRF-CEM,100 µM
same,CC50,CCRF-CEM,100 µM
same,GI50,NCI-H322M,2.51 µM
same,TGI,NCI-H322M,10 µM
same,GI50,[3],1.58 µM
same,TGI,[4],7.94 µM
same,CC50,[4],100 µM
CNC(=O)c1cc(Oc2ccc3nc(NC(=O)Nc4cc(C(F)(F)F)cc(C(F)(F)F)c4)sc3c2)ccn1,growth at 0.1 µM,[5],105%
same,growth at 0.01 µM,[6],104%
same,growth at 0.1 µM,[7],105%
same,growth at 0.1 µM,[8],93%
same,growth at 100 µM,EKVX,-56%
same,IC50,[9],0.566 µM
same,growth at 1 µM,[10],57%
same,GI50,MDA-MB-435 [1],1.04 µM
same,TGI,MDA-MB-435 [1],2.7 µM
same,CC50,MDA-MB-435 [1],6.99 µM
same,growth at 1 µM,[11],77%
same,growth at 100 µM,[12],-67%
same,growth at 0.1 µM,NCI-H23,95%
same,growth at 0.1 µM,[13],94%
same,growth at 1 µM,[14],70%
same,growth at 1 µM,[15],63%
same,growth at 1 µM,MDA-MB-435 [16],52%
same,GI50,[2],1.34 µM
same,LC50 (50% lethal concentration),[2],> 100 µM
same,TGI,[2],4.43 µM
same,growth at 100 µM,[17],-45%
same,growth at 0.1 µM,NCI-H522 [18],97%
same,growth at 100 µM,[19],-65%
same,growth at 0.01 µM,NCI-H522 [20],95%
same,GI50,CCRF-CEM,1.07 µM
same,TGI,CCRF-CEM,5.83 µM
same,CC50,CCRF-CEM,> 100 µM
same,growth at 0.01 µM,A498,100%
same,GI50,NCI-H322M,1.49 µM
same,TGI,NCI-H322M,3.65 µM
same,growth at 0.01 µM,[21],102%
same,growth at 0.01 µM,[22],102%
same,GI50,[3],1.6 µM
same,TGI,[3],4.17 µM
same,CC50,[3],20.4 µM
same,growth at 0.01 µM,[23],85%
same,growth at 0.1 µM,NCI-H460,108%
same,growth at 0.01 µM,SN12C,99%
same,growth at 0.1 µM,NCI-H226,87%
same,growth at 1 µM,[24],59%
same,GI50,[4],1.65 µM
same,TGI,[4],4.84 µM
same,CC50,[4],> 100 µM
same,growth at 0.01 µM,MDA-MB-435 [25],92%
same,growth at 0.01 µM,MCF7,85%
same,growth at 1 µM,M14,77%
same,growth at 100 µM,[26],-89%
CNC(=O)c1cc(Oc2ccc3nc(NC(=O)Nc4ccc(Cl)c(Cl)c4)sc3c2)ccn1,growth at 0.1 µM,[5],97%
same,growth at 0.01 µM,[6],96%
same,growth at 100 µM,[27],78%
same,growth at 0.1 µM,[7],101%
same,growth at 0.1 µM,[8],95%
same,growth at 100 µM,EKVX,23%
same,IC50,[9],0.015 µM
same,growth at 1 µM,[10],88%
same,GI50,MDA-MB-435 [1],2.02 µM
same,TGI,MDA-MB-435 [1],4.62 µM
same,CC50,MDA-MB-435 [1],> 100 µM
same,growth at 100 µM,[12],26%
same,growth at 0.1 µM,NCI-H23,92%
same,growth at 0.1 µM,[13],100%
same,growth at 1 µM,[14],103%
same,growth at 1 µM,[15],103%
same,growth at 1 µM,MDA-MB-435 [16],93%
same,GI50,[2],1.99 µM
same,LC50 (50% lethal concentration),[2],7.95 µM
same,TGI,[2],3.98 µM
same,growth at 100 µM,[17],-74%
same,growth at 0.1 µM,NCI-H522 [18],100%
same,growth at 100 µM,[19],26%
same,growth at 0.01 µM,NCI-H522 [20],98%
same,GI50,CCRF-CEM,> 100 µM
same,TGI,CCRF-CEM,> 100 µM
same,CC50,CCRF-CEM,> 100 µM
same,growth at 0.01 µM,A498,101%
same,GI50,NCI-H322M,2.45 µM
same,LC50 (50% lethal concentration),NCI-H322M,> 100 µM
same,growth at 0.01 µM,[21],94%
same,growth at 0.01 µM,[22],103%
same,GI50,[3],> 100 µM
same,TGI,[3],> 100 µM
same,CC50,[3],> 100 µM
same,growth at 0.01 µM,[23],105%
same,growth at 0.1 µM,NCI-H460,109%
same,growth at 0.01 µM,SN12C,102%
same,growth at 0.1 µM,NCI-H226,106%
same,growth at 1 µM,[24],89%
same,GI50,[4],2.77 µM
same,TGI,[4],6.66 µM
same,CC50,[4],> 100 µM
same,growth at 0.01 µM,MDA-MB-435 [25],89%
same,growth at 0.01 µM,MCF7,87%
same,growth at 1 µM,M14,97%
same,growth at 100 µM,[26],-34%
